Data taken from patent US8592486B2, “Compounds for inflammation and immune-related uses” (Synta Pharmaceuticals Corp., priority 2005, dated 2013).
pIC50: −log10 of the molar value. Counter-ions that a name gives are not always drawn. Like-named read-outs stand apart in the source and are kept apart here.

Experiments:
IL-2 production = experiment: Inhibition of IL-2 production in PHA-activated Jurkat cells (ELISA); format: cell-based, human; settings: Homo sapiens, read-out: IC50 (inhibition of IL-2 production)
Method: Jurkat cells were placed in a 96 well plate (0.5 million cells per well in 1% FBS medium) then a test compound of this invention was added at different concentrations. After 10 minutes, the cells were activated with PHA (final concentration 2.5 μg/mL) and incubated for 20 hours at 37° C. under CO2. The final volume was 200 μL. Following incubation, the cells were centrifuged and the supernatants collected and stored at −70° C. prior to assaying for IL-2 production. A commercial ELISA kit (IL-2 Eli-pair, Diaclone Research, Besancon, France) was used to detect production of IL-2, from which dose response curves were obtained. The IC50 value was calculated as the concentration at which 50% of maximum IL-2 production after stimulation was inhibited versus a non-stimulation control.

[1] = tested on: degranulation in RBL cells; experiment: Inhibition of degranulation in RBL cells; format: cell-based; settings: Rattus norvegicus, anti-DNP IgE, read-out: IC50 (concentration which inhibits 50% of degranulation in RBL cells)
Method: The day before the assay was performed, RBL cells, that had been grown to confluence in a 96 well plate, were incubated at 37° C. for at least 2 hours. The medium was replaced in each well with 100 μL of fresh medium containing […] of anti-DNP IgE.
On the following day, the cells were washed once with PRS (2.6 mM glucose and 0.1% BSA) and 160 μL of PRS was added to each well. A test compound was added to a well in a 20 μL solution at 10× of the desired concentration and incubated for 20 to 40 minutes at 37° C. 20 μL of 10× mouse anti-IgE ([…]) was added. Maximum degranulation occurred between 15 to 40 minutes after addition of anti-IgE.

[2] = Jurkat, 20 h, Jurkat cells, PHA 2.5 μg/mL, 20 hours, IL-2 ELISA
[3] = Jurkat cells, PHA 2.5 μg/mL, 20 hours, IL-2 ELISA

| SMILES | pIC50 (IL-2 production; [2]) | other results |
| --- | --- | --- |
| Cc1ccc(-c2ncco2)cc1-c1ccc(NC(=O)c2c(F)cccc2F)cc1 [Compound 3, 2,6-Difluoro-N-(2′-methyl-5′-oxazol-2-yl-biphenyl-4-yl)-bezamide] | 8.80 | pIC50 [1]: 5.35 |
| Cc1ccc(-c2nnn[nH]2)cc1-c1ccc(NC(=O)c2c(F)cccc2F)cc1 [Compound 6, 2,6-Difluoro-N-[2′-methyl-5′-(1H-tetrazol-5-yl)-biphenyl-4-yl]-benzamide] | 8.05 | pIC50 [1]: 5.30 |
| Cc1cnccc1C(=O)Nc1ccc(-c2cc(-c3nccs3)ccc2C)cc1 [Compound 9, 3-Methyl-N-(2′-methyl-5′-thiazol-2-yl-biphenyl-4-yl)-isonicotinamide, HCl salt] | 8.15 | pIC50 [1]: 5.85 |
| COc1ncc(Cl)cc1-c1ccc(NC(=O)c2c(F)cccc2F)cc1 [Compound 8, N-[4-(5-Chloro-2-methoxy-pyridin-3-yl)-phenyl]-2,6-difluoro-benzamide, hydrochloride] |  | pIC50 (IL-2 production; [3]): 7.89; pIC50 ([1]; RBL): 6.28 |
| COc1ccc(CCCOC(Cn2ccnc2)c2ccc(OC)cc2)cc1 (centres unmarked) [SKF96365, reference compound] |  | pIC50 ([1]; RBL): < 4.70 |
| Cc1cc(-c2ccc(C)c(-c3ccc(NC(=O)c4ccncc4C)cc3)c2)on1 [Compound 36, 3-Methyl-N-[5′-(3-methyl-isoxazol-5-yl)-2′-methyl-biphenyl-4-yl]-isonicotinamide] | 8.40 |  |
| CSc1nnc(-c2ccc(C)c(-c3ccc(NC(=O)c4c(F)cccc4F)cc3)c2)n1C [Compound 72, 2,6-Difluoro-N-[2′-methyl-5′-(4-methyl-5-methylsulfanyl-4H-[1,2,4]triazol-3-yl)-biphenyl-4-yl]-benzamide] | < 6.00 |  |
| Cc1cnccc1C(=O)Nc1ccc(-c2cc(-c3cccnc3)ccc2C)cc1 [Compound 20, 3-Methyl-N-[5′-(pyridin-3-yl)-2′-methyl-biphenyl-4-yl]-isonicotinamide] | 8.10 |  |
| Cc1ccc(-c2noc(=O)[nH]2)cc1-c1ccc(NC(=O)c2c(F)cccc2F)cc1 [Compound 42, 2,6-Difluoro-N-[2′-methyl-5′-(5-oxo-4,5-dihydro-[1,2,4]-oxadiazol-3-yl)-biphenyl-4-yl]-benzamide] | < 6.00 |  |
| COc1ccc(-c2ncco2)cc1-c1ccc(NC(=O)c2ccncc2C)cc1 [Compound 50, 3-Methyl-N-[5′-(oxazol-2-yl)-2′-methoxy-biphenyl-4-yl]-isonicotinamide] | 7.64 |  |
| Cc1ccc(-c2nc(C(F)(F)F)cs2)cc1-c1ccc(NC(=O)c2c(F)cccc2F)cc1 [Compound 39] | 7.89 |  |
| Cc1ccc(-c2nnco2)cc1-c1ccc(NC(=O)c2ccncc2F)cc1 [Compound 71, 3-Fluoro-N-[2′-methyl-5′-([1,3,4]oxadiazol-2-yl)-biphenyl-4-yl]-isonicotinamide] | 8.22 |  |
| Cc1cnccc1C(=O)Nc1ccc(-c2cc(-c3nnco3)ccc2C)cc1 [Compound 70, 3-Methyl-N-[2′-methyl-5′-([1,3,4]oxadiazol-2-yl)-biphenyl-4-yl]-isonicotinamide] | 7.89 |  |
| CSc1nnc(-c2ccc(C)c(-c3ccc(NC(=O)c4ccncc4F)cc3)c2)n1C [Compound 73, 3-Fluoro-N-[2′-methyl-5′-(4-methyl-5-methylsulfanyl-4H-[1,2,4]triazol-3-yl)-biphenyl-4-yl]-isonicotinamide] | < 6.00 |  |
| Cc1cnccc1C(=O)Nc1ccc(-c2cc(-c3nnnn3C)ccc2C)cc1 [Compound 49, 3-Methyl-N-[2′-methyl-5′-(1-methyl-1H-tetrazol-5-yl)-biphenyl-4-yl]-isonicotinamide] | 7.92 |  |
| COc1ccc(-c2ncco2)cc1-c1ccc(NC(=O)c2c(F)cncc2F)cc1 [Compound 51, 3,5-Difluoro-N-[5′-(oxazol-2-yl)-2′-methoxy-biphenyl-4-yl]-isonicotinamide] | 7.96 |  |
| Cc1ccc(-c2cccnc2)cc1-c1ccc(NC(=O)c2c(F)cccc2F)cc1 [Compound 22, 2,6-Difluoro-N-[2′-methyl-5′-(pyridine-3-yl)-biphenyl-4-yl]-benzamide] | 9.00 |  |
| Cc1ccc(-c2nnn[nH]2)cc1-c1ccc(NC(=O)c2c(F)cccc2F)cc1 [Compound 65, 2,6-Difluoro-N-[2′-methyl-5′-(1H-tetrazol-5-yl)-biphenyl-4-yl]-benzamide, sodium salt] |  | pIC50 (IL-2 production; Jurkat, 20 h): < 6.00 |

| SMILES | pIC50 (IL-2 production; [2]) | other results |
| --- | --- | --- |
| Cc1ccc(-c2ncnn2C)cc1-c1ccc(NC(=O)c2ccncc2F)cc1 [Compound 67, 3-Fluoro-N-[2′-methyl-5′-(2-methyl-2H-[1,2,4]triazol-3-yl)-biphenyl-4-yl]-isonicotinamide] | 7.57 |  |
| COc1ccc(-c2ccco2)cc1-c1ccc(NC(=O)c2ccncc2C)cc1 [Compound 47, 3-Methyl-N-[2′-methoxy-5′-(furan-2-yl)-biphenyl-4-yl]-isonicotinamide] | 7.23 |  |
| Cc1ccc(-c2nnc(N)s2)cc1-c1ccc(NC(=O)c2c(F)cccc2F)cc1 [Compound 62, 2,6-Difluoro-N-[2′-methyl-5′-(5-amino-[1,3,4]thiadiazol-2-yl)-biphenyl-4-yl]-benzamide] | 7.72 |  |
| Cc1ccc(-c2nccs2)cc1-c1ccc(NC(=O)c2c(F)cccc2F)cc1 [Compound 15, 2,6-Difluoro-N-(2′-methyl-5′-thiazol-2-yl-biphenyl-4-yl)-benzamide] | 8.70 |  |
| COCCOC(=O)c1ccc(Cl)c(-c2ccc(NC(=O)c3c(F)cccc3F)cc2)c1 [Compound 2, 6-Chloro-4′-(2,6-difluoro-benzoylamino)-biphenyl-3-(carboxylic acid 2-methoxyethyl ester)] | 8.05 | pIC50 [1]: 5.31 |
| Cc1csc(-c2ccc(C)c(-c3ccc(NC(=O)c4ccncc4C)cc3)c2)n1 [Compound 40, 3-Methyl-N-[5′-(4-methyl-thiazol-2-yl)-2′-methyl-biphenyl-4-yl]-isonicotinamide] | 7.96 |  |
| COc1ncc(Cl)cc1-c1ccc(NC(=O)c2c(F)cccc2F)cc1 [Compound 5, N-[4-(5-Chloro-2-methoxy-pyridin-3-yl)-phenyl]-2,6-difluoro-benzamide] | 9.00 | pIC50 [1]: 5.96 |
| COC(=O)c1ccc(C)c(-c2ccc(NC(=O)c3ccncc3F)cc2)c1 [Compound 12, 4′-[(3-Fluoro-pyridine-4-carbonyl)-amino]-6-methyl-biphenyl-3-carboxylic acid methyl ester] | 8.30 | pIC50 [1]: 6.32 |
| COc1ncc(Cl)cc1-c1ccc(NC(=O)c2ccncc2C)cc1 [Compound 18, 3-Methyl-N-[4-(5-chloro-2-methoxy-pyridin-3-yl)-phenyl]-isonicotinamide] | 8.05 |  |
| CSc1nnc(-c2ccc(C)c(-c3ccc(NC(=O)c4ccncc4C)cc3)c2)n1C [Compound 74, 3-Methyl-N-[2′-methyl-5′-(4-methyl-5-methylsulfanyl-4H-[1,2,4]triazol-3-yl)-biphenyl-4-yl]-isonicotinamide] | < 6.00 |  |
| Cc1cnccc1C(=O)Nc1ccc(-c2cc(-c3nccs3)ccc2Cl)cc1 [Compound 55, 3-Methyl-N-[5′-(thiazol-2-yl)-2′-chloro-biphenyl-4-yl]-isonicotinamide] | 8.22 |  |
| Cc1cnccc1C(=O)Nc1ccc(-c2cc(-c3nncs3)ccc2C)cc1 [Compound 60, 3-Methyl-N-[5′-([1,3,4]thiadiazol-2-yl)-2′-methyl-biphenyl-4-yl]-isonicotinamide] | 7.89 |  |
| Cc1ccc(-c2ccno2)cc1-c1ccc(NC(=O)c2snnc2C)cc1 [Compound 33, 4-Methyl-[1,2,3]thiadazole-5-carboxylic acid [2′-methyl-5′-(isoxazol-5-yl)-biphenyl-4-yl]-amide] | 8.40 |  |
| Cc1cnccc1C(=O)Nc1ccc(-c2cc(-c3ccno3)ccc2C)cc1 [Compound 34, 3-Methyl-N-[5′-(isoxazol-5-yl)-2′-methyl-biphenyl-4-yl]-isonicotinamide, HCl salt] |  | pIC50 (IL-2 production; [3]): 7.96 |
| O=C(Nc1ccc(-c2cc(-c3nccs3)ccc2Cl)cc1)c1c(F)cccc1F [Compound 56, 2,6-Difluoro-N-[2′-chloro-5′-(thiazol-2-yl)-biphenyl-4-yl]-benzamide] | 8.70 |  |
| Cc1csc(-c2ccc(C)c(-c3ccc(NC(=O)c4c(F)cccc4F)cc3)c2)n1 [Compound 38, 2,6-Difluoro-N-[2′-methyl-5′-(4-methyl-thiazol-2-yl)-biphenyl-4-yl]-benzamide] | 8.52 |  |
| Cc1ccc(-c2nncs2)cc1-c1ccc(NC(=O)c2c(F)cncc2F)cc1 [Compound 53, 3,5-Difluoro-N-[5′-([1,3,4]thiadiazol-2-yl)-2′-methyl-biphenyl-4-yl]-isonicotinamide] | 8.22 |  |
| COC(=O)c1ccc(C)c(-c2ccc(NC(=O)c3c(F)cncc3F)cc2)c1 [Compound 4, 4′-[(3,5-Difluoro-pyridine-4-cabonyl)-amino]-6-methyl-biphenyl-3-carboxylic acid methyl ester] | 8.70 | pIC50 [1]: 5.84 |
